Laboratory results from patent EP4818175A1, “NOVEL ANTIVIRAL COMPOUNDS” (Consejo Superior de Investigaciones Científicas (CSIC), priority 2025, dated 2026).

Test system: HSV-1 K26-GFP
Assay: microbe, parasite or virus in culture
Format: cell-based, HSV-1 (F strain)
Conditions: Human alphaherpesvirus 1, Vero, 24 h; for inhibition at 20 µM: read-out: percentage inhibition at the highest concentration tested (20 µM)

SMILES	EC50 [µM]	inhibition at 20 µM [%]
Nc1nc2c(ncn2COCCO)c(=O)[nH]1 [Acyclovir (ACV), Acyclovir, reference compound]	0.68 ± 0.11	
O=C1c2c(O)c(=O)ccn2N([C@@H]2c3ccccc3SCc3c2ccc(F)c3F)[C@@H]2COCCN12 [Baloxavir acid, reference compound]	> 20	40.7
COC(=O)OCOc1c2n(ccc1=O)N([C@@H]1c3ccccc3SCc3c1ccc(F)c3F)[C@@H]1COCCN1C2=O [Baloxavir marboxil, reference compound]	> 20	13.7
O=C1c2c(O)c(=O)ccn2N(Cc2ccc(C(F)(F)F)cc2)[C@@H]2COCCN12 [Compound 7, (R)-7-hydroxy-12-(4-(trifluoromethyl)benzyl)-3,4,12,12a-tetrahydro-1H-[1,4]oxazino[3,4-c]pyrido[2,1-f][1,2,4]triazine-6,8-dione]	3.4 ± 2.7	
O=C1c2c(O)c(=O)ccn2N(Cc2ccc(Cl)c(F)c2)[C@@H]2COCCN12 [Compound 10, (R)-12-(4-chloro-3-fluorobenzyl)-7-hydroxy-3,4,12,12a-tetrahydro-1H-[1,4]oxazino[3,4-c]pyrido[2,1-f][1,2,4]triazine-6,8-dione]	10.3 ± 0.9	
O=C1c2c(O)c(=O)ccn2N(Cc2ccc(-c3ccco3)cc2)[C@@H]2COCCN12 [Compound 18, (R)-12-(4-(furan-2-yl)benzyl)-7-hydroxy-3,4,12,12a-tetrahydro-1H-[1,4]oxazino[3,4-c]pyrido[2,1-f][1,2,4]triazine-6,8-dione]	> 20	48.5
O=C1c2c(O)c(=O)ccn2N(Cc2ccc(-c3ccccc3)cc2)[C@@H]2COCCN12 [Compound 19, (R)-12-([1,1'-biphenyl]-4-yimethyl)-7-hydroxy-3,4,12,12a-tetrahydro-1H-[1,4]oxazino[3,4-c]pyrido[2,1-f][1,2,4]triazine-6,8-dione]	2.8 ± 1.1	
O=C1c2c(O)c(=O)ccn2N(Cc2ccc(-c3ccc(F)cc3)cc2)[C@@H]2COCCN12 [Compound 29, (R)-12-((4'-fluoro-[1,1'-biphenyl]-4-yl)methyl)-7-hydroxy-3,4,12,12a-tefrahydro-1H-[1,4]oxazino[3,4-c]pyrido[2,1-f][1,2,4]triazine-6,8-dione]	4 ± 1.3	
O=C1c2c(O)c(=O)ccn2N(Cc2ccc(-c3ccc(OC(F)(F)F)cc3)cc2)[C@@H]2COCCN12 [Compound 32, (R)-7-hydroxy-12-((4'-(trifluoromethoxy)-[1,1'-biphenyl]-4-yl)methyl)-3,4,12,12a-tetrahydro-1H-[1,4]oxazino[3,4-c]pyrido[2,1-f][1,2,4]triazine-6,8-dione]	8.9 ± 1	
CC(C)c1ccc(O)c(O)c(=O)c1 [β-thujaplicinol, reference compound]	3.9 ± 0.9	
